Data on 15 compounds can be found in PubChem BioAssay (NCI).

Several values for one entry are separate records, joined by “and”; a condition that tells them apart may be missing. Identical values can stand only once.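 1) Cells in 96-well plates. 2) Compound, 48 h, 5 concentrations. 3) Linear interpolation between surrounding doses. 4) Unreached endpoint = highest concentration. At the GI50, growth is halved. TGI: concentration producing complete growth inhibition.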

What all share (experiment): growth of human tumour cells (NCI), 48 h
Test [1] relates to DU-145 prostate.
Test [2] concerns MALME-3M melanoma.
The subject of test [3] is OVCAR-4 ovarian.
Test [4] concerns SF-295 CNS.
In test [5] the test system is SK-MEL-28 melanoma.
For test [6], the system named is SK-MEL-5 melanoma.
Test [7] relates to SN12C renal.
The subject of test [8] is SW-620 colon.
The subject of test [9] is TK-10 renal.
Test [10] has as its system UACC-62 melanoma.

Take `CS(=O)CCCCCN=C=S` (stereo unspecified): the GI50 was 2.81 µM in [1]; 4.12 µM in [2]; 5.11 µM in [3]; 17.1 µM in [4]; 4.07 µM in test [5]; 5.3 µM in test [6]. Also, the GI50 in test [7] was 3.44 µM; in test [8], 4.1 µM; in test [9], 3.83 µM; in test [10], 2.93 µM. Besides, the TGI in [1] was 10.6 µM; in test [2], 18.6 µM; in test [3] it was 22.8 µM; in [4] it was 31.4 µM; in [5], 16.8 µM; in test [6], 17.9 µM. For the same compound, the TGI in [7] was 11.4 µM; in test [8], 15.9 µM; in test [9], 10.3 µM; in test [10], 12.5 µM.

With `C/C(=N\NC(=O)c1ccncc1)c1ccc2ccccc2c1O`, the TGI was 38.2 µM in test [1]; 43.2 µM in test [2]; above 65.2 µM in test [3]; 20.7 µM in test [4]; above 100 µM in test [5]; 14.1 µM in test [6]. Besides, the TGI in test [7] was 40.9 µM; in test [8], above 100 µM; in [9] it was above 100 µM; in test [10], 21.6 µM.

For `NC(N)=NS(=O)(=O)c1ccc(NCc2c3ccccc3nc3ccccc23)cc1`, the TGI in test [1] is above 100 µM; in test [2], 49.7 µM; in test [3], above 100 µM; in [4], 22 µM; in [5], above 97.1 µM; in test [6], 62.8 µM. In addition, the TGI in test [7] was 41.3 µM; in [8], above 87.7 µM; in test [9] it was above 88 µM; in [10], 35.2 µM.

Take `CCNCC(=O)O[C@]1(CC)C(=O)OCc2c1cc1n(c2=O)Cc2cc3ccccc3nc2-1`: the TGI in test [1] was 1 µM; in test [2] it was 13.2 µM; in [3], 8.84 µM; in test [4], 4.66 µM; in test [5], above 55.5 µM; in test [6] it was 1.27 µM. The TGI in test [7] was 11.2 µM; in [8], above 62.5 µM; in test [9] it was 99 µM; in test [10] it was 0.677 µM.

`CCCCCC(O)C1C(=O)OC(C)C(O)/C=C/C=C/C=C/C=C\C=C(\C)C(O)CC(O)CC(O)CC(O)CC(O)CC(O)CC1O` (stereo unspecified): the GI50 in test [1], in test [2], in test [3], in test [4], in test [5] and in [6] was above 100 µM each time. The GI50 in test [7], in test [8], in [9] and in test [10] was above 100 µM throughout. In addition, the TGI in test [1] is above 100 µM; in test [2], above 100 µM; in test [3], 26.3 µM and > 100 µM; in test [4] it was above 100 µM; in [5], above 100 µM; in test [6] it was above 100 µM. The TGI in [7], in test [8], in [9] and in test [10] was above 100 µM throughout.

Take `CC(=O)OC1CC(n2cc(F)c(=O)[nH]c2=O)OC1CO` (stereo unspecified): the TGI is above 100 µM in [1]; above 100 µM in test [2]; above 100 µM in test [3]; above 89 µM in test [4]; above 100 µM in test [5]; 16.2 µM in [6]. Also, the TGI in test [7] was above 100 µM; in test [8], above 86.8 µM; in test [9] it was above 100 µM; in [10], above 22.4 µM.

Turning to `O=P(O)(O)c1ccccc1` (tested in a mixture with another compound), the TGI in test [1], in test [2], in test [3], in [4], in [5] and in test [6] was above 100 µM in each case. The TGI in [7], in test [8], in [9] and in test [10] was above 100 µM throughout.

In the case of `COc1cc(NCCCCN=C(N)NC(N)=NC(C)C)c2ncccc2c1`, the GI50 in test [1] is 21 µM; in test [2], 1.14 µM; in [3], 0.0797 µM; in test [4], 23 µM; in [5] it was 12.1 µM; in test [6], 2.84 µM. In addition, the GI50 in test [7] was 5.21 µM; in [8] it was 5.76 µM; in test [9] it was 10.8 µM; in test [10] it was 10.3 µM. Moreover, the TGI is above 59.9 µM in test [1]; 4.6 µM in test [2]; 2.15 µM in test [3]; above 91.1 µM in test [4]; 24.7 µM in test [5]; 10.7 µM in test [6]. For the same compound, the TGI in test [7] came out at 28.5 µM; in test [8], 22.2 µM; in [9], 43.3 µM; in test [10], 24.3 µM.

On to `CC(C)C1OC(=O)C=C1Sc1ccccc1` (stereo unspecified), for which the TGI in test [1], in [2], in test [3], in [4], in test [5] and in [6] was above 100 µM in each case. In addition, the TGI in test [7], in test [8], in test [9] and in [10] was above 100 µM each time.

Take `CCn1c2c(n(CC)c1=S)-c1c(n(CC)c(=S)n1CC)SSSS2`: the TGI in test [1] was above 100 µM; in test [2], 9.08 µM; in test [3] it was 20.1 µM; in test [4], above 80.3 µM; in test [5] it was 18.7 µM; in test [6] it was 43.1 µM. The TGI in [7] turned out to be 24 µM; in test [8], 3.29 µM; in [9], 28.4 µM; in [10] it was 18.6 µM.

Consider `O=C1C(Br)=CC2(C=C1Br)CCN=c1c2c(O)c2nc3ccccc3c3ccnc1c23`, for which the GI50 in [1] was 1.95 µM; in test [2], 1.41 µM; in test [3] it was 0.788 µM; in test [4] it was 5.97 µM; in test [5], 0.803 µM; in test [6], 1.4 µM. The GI50 in [7] is 1.54 µM; in [8] it was 0.712 µM; in test [9] it was 3.47 µM; in [10], 3.31 µM. The TGI was 24.8 µM in [1]; 3.44 µM in test [2]; 2.22 µM in [3]; 19.3 µM in [4]; 2.49 µM in test [5]; 6.93 µM in test [6]. Moreover, the TGI in test [7] was determined as 5.92 µM; in test [8], 1.72 µM; in test [9], 10.3 µM; in test [10], 10.7 µM.

Turning to `NC(=NCCCOc1ccc(Cl)cc1)Nc1ccc(Cl)cc1`, the GI50 is 2.67 µM in test [1]; 1.95 µM in test [2]; 2.3 µM in test [3]; 2.42 µM in test [4]; 1.89 µM in test [5]; 1.74 µM in test [6]. The GI50 in test [7] was 2.75 µM; in test [8] it was 1.94 µM; in test [9], 1.75 µM; in [10], 1.88 µM. Further, the TGI is 7.73 µM in test [1]; 4.14 µM in test [2]; 7.9 µM in [3]; 6.9 µM in test [4]; 3.64 µM in [5]; 3.16 µM in test [6]. In addition, the TGI in [7] worked out at 10.9 µM; in [8] it was 5.59 µM; in test [9], 3.89 µM; in [10] it was 3.94 µM.

For `COc1cc2c(cc1OCCOS(C)(=O)=O)N=C[C@@H]1CCCN1C2=O`, the TGI was above 100 µM in test [1]; 31.6 µM in test [2]; 58.5 µM in test [3]; 75.4 µM in test [4]; 61.5 µM in [5]; 42.2 µM in [6]. Moreover, the TGI is above 100 µM in [7], 38.4 µM in test [8], 33.2 µM in test [9] and 42.5 µM in [10]. Further, the GI50 is 13.6 µM in [2]; 16.9 µM in test [6]; 14.6 µM in test [8]; 18.1 µM in [9]; 19.4 µM in test [10].

For `CN(C)c1ccc(/C=C(/NC(=O)c2ccccc2)c2nc3ccc(Cl)cc3[nH]2)cc1`, in test [1], the GI50 was 71.5 µM. The TGI was above 100 µM in test [1]; above 82.9 µM in test [2]; above 100 µM in test [3]; above 87.3 µM in test [4]; above 100 µM in test [5]; 39.3 µM in test [6]. In addition, the TGI is above 100 µM in test [7], above 60.5 µM in test [8], above 100 µM in [9] and 97.6 µM in test [10].

With `O=C1OCC(c2cccs2)=C1Cl`, the GI50 in test [1] was 26.7 µM; in test [2] it was above 100 µM; in [3], 73.8 µM; in test [4], 80.9 µM; in test [5], 76.8 µM; in [6], 86.3 µM. The GI50 is 26.7 µM in [7], above 100 µM in [8], 54.2 µM in test [9] and 19.5 µM in test [10]. The TGI in test [1], in test [2], in test [3], in [4], in test [5] and in test [6] was above 100 µM each time. For the same compound, the TGI in test [7], in test [8], in test [9] and in test [10] was above 100 µM throughout.
